Laboratory results taken from US10851073B2, “Protein tyrosine phosphatase inhibitors and methods of use thereof” (Calico Life Sciences LLC, priority 2019, dated 2020).

Columns and labels:
[1] = test system: MC-38 murine colon adenocarcinoma; assay: In vivo efficacy in MC38 mouse tumor model
Protocol: Example 232. In Vivo Efficacy of PTPN2 Inhibitors in MC38 Mouse Tumor Model and Impact on Pharmacodynamic Markers
All experiments were conducted in compliance with AbbVie's Institutional Animal Care and Use Committee and the National Institutes of Health Guide for Care and Use of Laboratory Animals guidelines in a facility accredited by the Association for the Assessment and Accreditation of Laboratory Animal Care. C57Bl/6 female mice were obtained from Charles River (Wilmington, Mass.). The mice were group-housed 10 per cage. Food and water were available ad libitum. Animals were acclimated to the animal facilities for a period of at least one week prior to commencement of experiments. Animals were tested in the light phase of a 12-hour light: 12-hour dark schedule (lights on 0600 hours).
Tumor Cell Inoculation and Treatments.
Cells were grown to passage 3 in vitro. A total of 1×10^5 viable MC-38 cells were inoculated subcutaneously into the right flank of female C57Bl/6 mice (7-12 weeks old) on Day 0. The injection volume was 0.1 mL and was composed of a 1:1 mixture of S-MEM and Matrigel® (Corning, N.Y., USA). […] The mean tumor volume (TV) at size match was approximately 196±64 mm^3. Following size match, treatments were initiated on the same day. Dosing of mice was conducted orally, twice a day (BID) at 7 a.m. and 5 p.m. for 21 days. Mice were dosed (10 mg/kg/dose) with either Compound 118 or vehicle controls (n=15 mice/group). Compound 118 was formulated in 10% ethanol, 30% PEG-400 and 60% Phosal-50PG and was dosed at 10 mL/kg. Tumor volume was calculated three times weekly. Measurements of the length (L) and width (W) of the tumor were taken via electronic caliper and the volume was calculated according to the following equation: V=L×W^2/2 using Study Director Version 3.1.399.22 (Studylog Systems, Inc, CA, USA). Mice were euthanized when tumor volume was […] or skin ulcerations occurred. Tumor growth inhibition (TGI) was calculated as TGI=1−(Mean TVTimepoint(Treatment)/Mean TVTimepoint (Vehicle)) for each timepoint that tumor volumes were measured. Reported TGIMax is the largest TGI value for any timepoint that tumors volumes were collected for that treatment group.

pSTAT5 in CD3+ T cells = assay: pSTAT5 flow cytometry assay in mouse whole blood; type: in vivo
Protocol: pSTAT5 Flow Cytometry Assay in Mouse Whole Blood. Whole blood was drawn into EDTA powder coated tubes by cardiac puncture from mice on day 8 of dosing with Compound 118 (2 hours after the 16th dose). 90 μL of whole blood were stimulated with 10 μL of murine IL-2 to achieve a final concentration of 100 ng IL-2/mL (R&D Systems, Minneapolis, Minn., cat #402-ML) for 20 minutes at 37° C., 5% CO2. After stimulation, 1.8 mL of prewarmed BD Phosflow Lyse/Fix Buffer (BD Biosciences, San Jose, Calif.) was added for 20 minutes at 37° C. Cells were washed twice in FACS buffer (Dulbecco's PBS with 0.2% BSA) and incubated for 30 minutes on ice in cold Perm Buffer III (BD Biosciences, San Jose, Calif.). Cells were washed with FACS buffer and resuspended in 50 μL of FACS buffer with antibodies and stained for 3 hours at room temperature with gentle shaking. […] After staining, cells were washed twice with FACS buffer, and the samples were acquired on a BD LSRFortessa™ X20 flow cytometers (BD Biosciences, San Jose, Calif.) and analyzed with FLowJo V10 software (FlowJo, Ashland, Oreg.). The mean fluorescence intensity (MFI) of pSTAT5 as a measure of the amount of phosphorylated STAT5 in the CD3+ T cell population from vehicle or Compound 118 treated animals was reported.

[2] = 10 mg/kg/dose oral BID for 21 days

## CC(C)CCN[C@@H]1CCc2cc(O)c(N3CC(=O)NS3(=O)=O)c(F)c2C1 (single isomer, unassigned) [Compound 118]
[1]; [2]
  mice that achieved complete cures: 70%
  tolerability: well tolerated, without obvious adverse health events
[1]; 10 mg/kg/dose oral BID for 21 days, C57Bl/6 mice
  Tumor Growth Inhibition (Max) compared to vehicle [%]: 94%
[1]; within 7-10 days of treatment
  tumor response observed: apparent tumor stasis and shrinkage
pSTAT5 in CD3+ T cells; 10 mg/kg/dose oral BID, day 8 of dosing (2 hours post 16th dose), value ± SEM
  pSTAT5 level [MFI] in CD3+ T cells from IL2 stimulated whole blood: 1261±97 MFI
pSTAT5 in CD3+ T cells; day 8 of dosing, ex vivo IL2 stimulation
  pSTAT5 levels in whole blood T cells, fold higher than vehicle: 1.6 fold
